Assay results taken from patent US10219516B2, “Molecules having pesticidal utility, and intermediates, compositions, and processes, related thereto” (priority 2015, dated 2019).
Like-named read-outs stand apart in the source and are kept apart here.

What was measured:
Assay type in all cases: in vivo
[1] = test system: Yellow Fever Mosquito (Aedes aegypti, AEDSAE); assay: Bioassay on Yellow Fever Mosquito (YFM), 96-well plate larval assay; conditions: for YFM (Biological Results, rating): Species YFM (Yellow Fever Mosquito); for YFM rating: Yellow Fever Mosquito, 96-well plate larval assay
Outline: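 Each well was scored for mortality after 3 days at room temperature under a non-evaporative lid. Test molecules came from DMSO masters (4000 ppm stock) diluted with water/acetone 90:10 and dispensed into six replicate plates, which were then infested with roughly 1-day-old larvae in liver-powder water.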

[2] = test system: Cabbage Looper (Trichoplusia ni, TRIPNI); assay: Bioassay on Cabbage Looper (CL), 128-well diet tray assay; conditions: Trichoplusia ni
Outline: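 Using eight wells per molecule, artificial diet was dosed at 50 μg/cm^2 with compound in 90:10 acetone-water and dried before one to five second-instar larvae were added per well. Covered vented trays were kept at 25° C. with 14:10 light-dark for five to seven days, then per-well percent mortality was recorded and averaged.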

[3] = test system: Beet Armyworm (Spodoptera exigua, LAPHEG); assay: Bioassay on Beet Armyworm (BAW), 128-well diet tray assay
Outline: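 In a 128-well format, eight wells per compound received a surface dose of 50 μg/cm^2 on artificial diet. After drying, each well got one to five second instar larvae, held at 25° C. with 14:10 photoperiod. Mortality percentages after five to seven days were averaged.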

[4] = Species CL (Cabbage Looper), read-out: CL (Biological Results, rating)
[5] = Species BAW (Beet Armyworm), read-out: BAW (Biological Results, rating)
[6] = Cabbage Looper, 128-well diet tray assay, read-out: CL rating
[7] = Beet Armyworm, 128-well diet tray assay, read-out: BAW rating

Structure (SMILES)	YFM (Biological Results, rating) [1]	pest or weed control at 50 µg/cm2 [2, 4] [%]	pest or weed control at 50 µg/cm2 [3, 5] [%]	YFM rating [1]	pest or weed control at 50 µg/cm2 [2, 6] [%]	pest or weed control at 50 µg/cm2 [3, 7] [%]
N#Cc1cc([N+](=O)[O-])ccc1NC(=O)c1cc(NC(=O)[C@H]2[C@H](c3cc(Cl)cc(Cl)c3)C2(Cl)Cl)ccc1Cl (relative stereo) [F229, trans-2-chloro-N-(2-cyano-4-nitrophenyl)-5-(2,2-dichloro-3-(3,5-dichlorophenyl)cyclopropane-1-carboxamido)benzamide]	A (80-100)	50 to 100	50 to 100			
Nc1cc(C(F)(F)F)cc(NC(=O)c2cc(NC(=O)C3C(c4cc(Cl)cc(Cl)c4)C3(Cl)Cl)ccc2Cl)n1 (stereo not drawn) [F328, N-(6-Amino-4-(trifluoromethyl)pyridin-2-yl-2-chloro-5-(trans-2,2-dichloro-3-(3,5-dichlorophenyl)cyclopropane-1-carboxamido)benzamide]	A (80-100)	50 to 100	50 to 100			
O=C(Nc1ccc(F)cc1)c1cc(NC(=O)[C@@H]2[C@@H](c3cc(Cl)cc(Cl)c3)C2(Cl)Cl)ccc1Cl [F166, 2-Chloro-5-((1S,3S)-2,2-dichloro-3-(3,5-dichlorophenyl)cyclopropane-1-carboxamido)-N-(4-fluorophenyl)benzamide]	B (More than 0-Less than 80)	50 to 100	50 to 100			
O=C(Nc1ncc(F)cc1F)c1cc(NC(=O)[C@H]2[C@H](c3ccc(Cl)c(Cl)c3)C2(Cl)Cl)ccc1Cl [F310, 2-Chloro-5-((1R,3R)-2,2-dichloro-3-(3,4-dichlorophenyl)cyclopropane-1-carboxamido)-N-(3,5-difluoropyridin-2-yl)benzamide]	A (80-100)	50 to 100	50 to 100			
O=C(Nc1cnc(F)c(Br)c1)c1cc(NC(=O)[C@H]2[C@H](c3cc(Cl)cc(Cl)c3)C2(Cl)Cl)ccc1Cl (relative stereo) [F395, N-(5-Bromo-6-fluoropyridin-3-yl)-2-chloro-5-(trans-2,2-dichloro-3-(3,5-dichlorophenyl)cyclopropane-1-carboxamido)benzamide]				A (80-100)	50 to 100	50 to 100
CN(C(=O)c1cc(NC(=O)[C@H]2[C@H](c3ccc(C(F)F)c(Cl)c3)C2(Cl)Cl)ccc1Cl)c1ccc(F)cc1 (relative stereo) [F596, 2-Chloro-5-(trans-2,2-dichloro-3-(3-chloro-4-(difluoromethyl)phenyl)cyclopropane-1-carboxamido)-N-(4-fluorophenyl)-N-methylbenzamide]				A (80-100)	50 to 100	50 to 100
O=C(Nc1ccc(F)cc1F)c1cc(NC(=O)[C@H]2[C@H](c3cc(Cl)c(Cl)c(Cl)c3)C2(Cl)Cl)ccc1F (relative stereo) [F75, trans-5-(2,2-Dichloro-3-(3,4,5-trichlorophenyl)cyclopropane-1-carboxamido)-N-(2,4-difluorophenyl)-2-fluorobenzamide]	A (80-100)	50 to 100	50 to 100			
Nc1ccc(NC(=O)c2cc(NC(=O)[C@H]3[C@H](c4cc(Cl)cc(Cl)c4)C3(Cl)Cl)ccc2Cl)cc1F (relative stereo) [F174, trans-N-(4-Amino-3-fluorophenyl)-2-chloro-5-(2,2-dichloro-3-(3,5-dichlorophenyl)cyclopropane-1-carboxamido)benzamide]	A (80-100)	50 to 100	50 to 100			
COC(=O)Nc1ccc(NC(=O)c2cc(NC(=O)[C@H]3[C@H](c4cc(Cl)cc(Cl)c4)C3(Cl)Cl)ccc2Cl)cc1 (relative stereo) [PF110, trans-methyl (4-(2-chloro-5-(2,2-dichloro-3-(3,5-dichlorophenyl)cyclopropane-1-carboxamido)benzamido)phenyl)carbamate]				B (More than 0-Less than 80)	50 to 100	50 to 100
O=C(Nc1ccc(F)cc1)c1cc(NC(=O)[C@H]2[C@H](c3cc(Cl)cc(Cl)c3)C2(Cl)Cl)ccc1-n1cncn1 (relative stereo) [F12, trans-5-(2,2-Dichloro-3-(3,5-dichlorophenyl)cyclopropane-1-carboxamido)-N-(4-fluorophenyl)-2-(1H-1,2,4-triazol-1-yl)benzamide]	A (80-100)	50 to 100	50 to 100			
C=C(F)c1cc([C@H]2[C@H](C(=O)Nc3ccc(Cl)c(C(=O)Nc4ccc(F)cc4)c3)C2(Cl)Cl)ccc1Cl (relative stereo) [F384, 2-Chloro-5-(trans-2,2-dichloro-3-(4-chloro-3-(1-fluorovinyl)phenyl)cyclopropane-1-carboxamido)-N-(4-fluorophenyl)benzamide]				A (80-100)	50 to 100	50 to 100
O=C(Nc1ncc(I)cc1F)c1cc(NC(=O)[C@H]2[C@H](c3cc(Cl)cc(Cl)c3)C2(Cl)Cl)ccc1Cl (relative stereo) [F312, 2-Chloro-5-(trans)-(2,2-dichloro-3-(3,5-dichlorophenyl)cyclopropane-1-carboxamido)-N-(3-fluoro-5-iodopyridin-2-yl)benzamide]	A (80-100)	50 to 100	50 to 100			
CN(C(=O)c1cccc(NC(=O)[C@H]2[C@H](c3cc(Cl)cc(Cl)c3)C2(Cl)Cl)c1)c1ccc(F)cc1 (relative stereo) [F273, trans-3-(2,2-Dichloro-3-(3,5-dichlorophenyl)cyclopropane-1-carboxamido)-N-(4-fluorophenyl)-N-methylbenzamide]	A (80-100)	50 to 100	50 to 100			
O=C(Nc1ccc(F)cc1F)c1cc(NC(=O)[C@@H]2[C@@H](c3cc(Cl)c(Cl)c(Cl)c3)C2(Cl)Cl)ccc1Cl [F282, 2-Chloro-5-((1S,3S)-2,2-dichloro-3-(3,4,5-trichlorophenyl)cyclopropane-1-carboxamido)-N-(2,4-difluorophenyl)benzamide]	A (80-100)	50 to 100	50 to 100			
O=C(Nc1ccc2c(c1)C(=O)N(c1ccc(F)cc1)C2=O)c1cc(NC(=O)[C@H]2[C@H](c3cc(Cl)cc(Cl)c3)C2(Cl)Cl)ccc1Cl (relative stereo) [F504, 2-Chloro-5-(trans)-(2,2-dichloro-3-(3,5-dichlorophenyl)cyclopropane-1-carboxamido)-N-(2-(4-fluorophenyl)-1,3-dioxoisoindolin-5-yl)benzamide]				A (80-100)	50 to 100	50 to 100
CN1Cc2ccc(NC(=O)c3cc(NC(=O)C4C(c5cc(Cl)cc(Cl)c5)C4(Cl)Cl)ccc3Cl)cc2C1 (stereo not drawn) [F498, 2-Chloro-5-(trans)-2,2-dichloro-3-(3,5-dichlorophenyl)cyclopropane-1-carboxamido)-N-(2-methylisoindolin-5-yl)benzamide]				A (80-100)	50 to 100	50 to 100
